Reference: patent US11053204B2, “Pyrimidinyloxy benzene derivatives as herbicides” (FMC Corporation, priority 2015, dated 2021)

Key:
Format in all cases: in vivo
[1] = system: windgrass (Apera spica-venti); experiment: Test C preemergence, plant response rating
[2] = system: nightshade (eastern black nightshade, Solanum ptycanthum); experiment: Test C preemergence, plant response rating
[3] = system: barnyardgrass (Echinochloa crus-galli); experiment: Test C preemergence, plant response rating; conditions: Preemergence
[4] = system: field violet (Viola arvensis); experiment: Test C postemergence, plant response rating; conditions: for Field Violet plant response rating: scale 0 to 100 (0 no effect, 100 complete control)
In short: (§1)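 Pre-emergence: seeds sown in loam soil–sand blend or silt loam and sprayed with test chemicals in a non-phytotoxic solvent mixture with surfactant. Post-emergence: plants 2 to 18 cm (1- to 4-leaf stage) in peat-based potting medium, same formulation. Greenhouse 13 to 15 d; visual rating 0 (no effect) to 100 (complete control) versus controls.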

[5] = system: speedwell (bird's-eye speedwell, Veronica persica); experiment: Test C postemergence, plant response rating; conditions: for Speedwell plant response rating: scale 0 to 100 (0 no effect, 100 complete control)
In short: as §1

[6] = system: pigweed, palmer (palmer pigweed, Amaranthus palmeri); experiment: Test C postemergence, plant response rating; conditions: for Pigweed, Palmer plant response rating: scale 0 to 100 (0 no effect, 100 complete control)
In short: as §1

[7] = system: buckwheat, wild (wild buckwheat, Polygonum convolvulus); experiment: Test C postemergence, plant response rating; conditions: for Buckwheat, Wild plant response rating: scale 0 to 100 (0 no effect, 100 complete control)
In short: as §1

[8] = system: windgrass (Apera spica-venti); experiment: Test C postemergence, plant response rating
In short: as §1

[9] = system: surinam grass (Brachiaria decumbens); experiment: Test C postemergence, plant response rating
In short: as §1

[10] = system: johnsongrass (Sorghum halepense); experiment: Test C postemergence, plant response rating; conditions: for Johnsongrass plant response rating: scale 0 to 100 (0 no effect, 100 complete control)
In short: as §1

[11] = system: nightshade (eastern black nightshade, Solanum ptycanthum); experiment: Test C postemergence, plant response rating; conditions: for Nightshade plant response rating: scale 0 to 100 (0 no effect, 100 complete control)
In short: as §1

[12] = system: wild poinsettia (Euphorbia heterophylla); experiment: Test C postemergence, plant response rating; conditions: for Poinsettia, Wild plant response rating: scale 0 to 100 (0 no effect, 100 complete control)
In short: as §1

[13] = system: geranium, cutleaf (cutleaf geranium, Geranium dissectum); experiment: Test C postemergence, plant response rating; conditions: for Geranium, Cutleaf plant response rating: scale 0 to 100 (0 no effect, 100 complete control)
In short: as §1

[14] = system: Canada thistle (Cirsium arvense); experiment: Test C postemergence, plant response rating; conditions: for Canada Thistle plant response rating: scale 0 to 100 (0 no effect, 100 complete control)
In short: as §1

[15] = system: field poppy (Papaver rhoeas); experiment: Test C postemergence, plant response rating; conditions: for Field Poppy plant response rating: scale 0 to 100 (0 no effect, 100 complete control)
In short: as §1

[16] = system: wild poinsettia (Euphorbia heterophylla); experiment: Test C preemergence, plant response rating
[17] = system: johnsongrass (Sorghum halepense); experiment: Test C preemergence, plant response rating
[18] = system: galium (catchweed bedstraw, Galium aparine); experiment: Test C preemergence, plant response rating
[19] = system: oat, wild (wild oat Avena fatua); experiment: Test C preemergence, plant response rating
[20] = 125 g ai/ha, scale 0 to 100 (0 no effect, 100 complete control)

SMILES: O=C(CCCCC(F)(F)F)c1c(Br)cccc1Oc1ncc(Cl)cn1 [Compound 82]
- Plant response rating, Windgrass ([1]; 31 g ai/ha, scale 0 to 100): 30
- Plant response rating, Windgrass ([1]; 62 g ai/ha, scale 0 to 100): 80
- Plant response rating, Windgrass ([1]; 125 g ai/ha, scale of 0 to 100): 90
- Plant response rating, Nightshade ([2]; 31 g ai/ha, scale 0 to 100): 20
- Plant response rating, Nightshade ([2]; 62 g ai/ha, scale 0 to 100): 40
- Plant response rating, Nightshade ([2]; 125 g ai/ha, scale of 0 to 100): 85
- Plant response rating, Barnyardgrass ([3]; 125 g ai/ha, scale of 0 to 100): 90
- Plant response rating, Barnyardgrass ([3]; 16 g ai/ha, scale 0 to 100): 5
- Plant response rating, Barnyardgrass ([3]; 31 g ai/ha, scale 0 to 100): 5
- Plant response rating, Barnyardgrass ([3]; 62 g ai/ha, scale 0 to 100): 20
- Plant response rating, Field Violet ([4]; 16 g ai/ha, scale of 0 to 100): 60
- Plant response rating, Field Violet ([4]; 31 g ai/ha, scale 0 to 100): 70
- Field Violet plant response rating ([4]; 62 g ai/ha): 90
- Field Violet plant response rating ([4]; 125 g ai/ha): 90
- Plant response rating, Speedwell ([5]; 16 g ai/ha, scale of 0 to 100): 75
- Plant response rating, Speedwell ([5]; 31 g ai/ha, scale 0 to 100): 85
- Speedwell plant response rating ([5]; 62 g ai/ha): 95
- Speedwell plant response rating ([5]; 125 g ai/ha): 95
- Plant response rating, Pigweed, Palmer ([6]; 16 g ai/ha, scale of 0 to 100): 75
- Plant response rating, Pigweed, Palmer ([6]; 31 g ai/ha, scale 0 to 100): 80
- Pigweed, Palmer plant response rating ([6]; 62 g ai/ha): 98
- Pigweed, Palmer plant response rating ([6]; 125 g ai/ha): 98
- Plant response rating, Buckwheat, Wild ([7]; 16 g ai/ha, scale of 0 to 100): 80
- Plant response rating, Buckwheat, Wild ([7]; 31 g ai/ha, scale 0 to 100): 70
- Buckwheat, Wild plant response rating ([7]; 62 g ai/ha): 100
- Buckwheat, Wild plant response rating ([7]; 125 g ai/ha): 100
- Plant response rating, Windgrass ([8]; 16 g ai/ha, scale of 0 to 100): 10
- Plant response rating, Windgrass ([8]; 31 g ai/ha, scale 0 to 100): 35
- Windgrass plant response rating [8, 20]: 35
- Plant response rating, Surinam Grass ([9]; 16 g ai/ha, scale of 0 to 100): 20
- Plant response rating, Surinam Grass ([9]; 31 g ai/ha, scale 0 to 100): 20
- Surinam Grass plant response rating [9, 20]: 25
- Plant response rating, Johnsongrass ([10]; 16 g ai/ha, scale of 0 to 100): 5
- Plant response rating, Johnsongrass ([10]; 31 g ai/ha, scale 0 to 100): 20
- Johnsongrass plant response rating ([10]; 62 g ai/ha): 10
- Johnsongrass plant response rating ([10]; 125 g ai/ha): 30
- Plant response rating, Nightshade ([11]; 16 g ai/ha, scale of 0 to 100): 85
- Plant response rating, Nightshade ([11]; 31 g ai/ha, scale 0 to 100): 80
- Nightshade plant response rating ([11]; 62 g ai/ha): 95
- Nightshade plant response rating ([11]; 125 g ai/ha): 100
- Plant response rating, Poinsettia, Wild ([12]; 16 g ai/ha, scale of 0 to 100): 40
- Plant response rating, Poinsettia, Wild ([12]; 31 g ai/ha, scale 0 to 100): 65
- Poinsettia, Wild plant response rating ([12]; 62 g ai/ha): 85
- Poinsettia, Wild plant response rating ([12]; 125 g ai/ha): 75
- Plant response rating, Geranium, Cutleaf ([13]; 16 g ai/ha, scale of 0 to 100): 30
- Plant response rating, Geranium, Cutleaf ([13]; 31 g ai/ha, scale 0 to 100): 30
- Geranium, Cutleaf plant response rating ([13]; 62 g ai/ha): 40
- Geranium, Cutleaf plant response rating ([13]; 125 g ai/ha): 60
- Plant response rating, Canada Thistle ([14]; 16 g ai/ha, scale of 0 to 100): 85
- Plant response rating, Canada Thistle ([14]; 31 g ai/ha, scale 0 to 100): 85
- Canada Thistle plant response rating ([14]; 62 g ai/ha): 85
- Canada Thistle plant response rating ([14]; 125 g ai/ha): 98
- Plant response rating, Field Poppy ([15]; 16 g ai/ha, scale of 0 to 100): 50
- Plant response rating, Field Poppy ([15]; 31 g ai/ha, scale 0 to 100): 85
- Field Poppy plant response rating ([15]; 62 g ai/ha): 100
- Field Poppy plant response rating ([15]; 125 g ai/ha): 100
- Plant response rating, Poinsettia, Wild ([16]; 31 g ai/ha, scale 0 to 100): 0
- Plant response rating, Poinsettia, Wild ([16]; 62 g ai/ha, scale 0 to 100): 0
- Plant response rating, Poinsettia, Wild ([16]; 125 g ai/ha, scale of 0 to 100): 20
- Plant response rating, Johnsongrass ([17]; 31 g ai/ha, scale 0 to 100): 5
- Plant response rating, Johnsongrass ([17]; 62 g ai/ha, scale 0 to 100): 40
- Plant response rating, Johnsongrass ([17]; 125 g ai/ha, scale of 0 to 100): 85
- Plant response rating, Galium ([18]; 31 g ai/ha, scale 0 to 100): 0
- Plant response rating, Galium ([18]; 62 g ai/ha, scale 0 to 100): 0
- Plant response rating, Galium ([18]; 125 g ai/ha, scale of 0 to 100): 80
- Plant response rating, Oat, Wild ([19]; 31 g ai/ha, scale 0 to 100): 0
- Plant response rating, Oat, Wild ([19]; 62 g ai/ha, scale 0 to 100): 5
- Plant response rating, Oat, Wild ([19]; 125 g ai/ha, scale of 0 to 100): 5
